According to patent US12564582B2 (Prilenia Neurotherapeutics Ltd., priority 2016, dated 2026):
Read-outs that look alike come from different tables or passages of the source.

Assays:
[1] = system: patients with DYT1 and other primary genetic forms of dystonia; conditions: 45 mg b.i.d., 90 mg b.i.d.; 26 weeks
From the text: The study population consists of those with DYT1 and other primary genetic forms of dystonia, as confirmed by genetic testing. The study's other inclusion criteria are patients with a BFMD score greater than 6, male or female patients, patients of any race or ethnicity, and patients with the ability to provide informed consent.
Burke-Fahn-Marsden Dystonia Rating Scale (BFMDRS) Rating Scale evaluates nine body parts (eyes, mouth, speech, swallowing, neck, trunk, right arm, right leg, left arm, and left leg) by rating the severity factor and provoking factors for each part on a 5 point scale of 0 (no dystonia) to 4 (indicating the presence of dystonia at rest). The dystonia scores of the eyes, mouth and neck are assigned a weighting factor of 0.5, while the other 6 parts are assigned a weighting factor of 1.0. The score of each part is obtained by multiplying the provoking factor by the severity factor and the weighting factor, and then summing the scores of each part. The maximum score possible is 120. A higher score indicates more severe dystonia. […]

[2] = system: patients with Huntington's disease;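 for Δ to placebo, change from baseline in UHDRS TMS Finger Taps: finger tapping item rates tapping with fingers of both hands, normal being 15 taps within 5 s, the combined score adds forearm pronation and supination on each side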
Experimental: The study also compared data from all patients to those obtained in HD subpopulations.
The primary efficacy variable and endpoint for this study was change from baseline in the UHDRS TMS (defined as the sum of all UHDRS motor domains ratings) at Week 26 or Week 52. The primary measure of motor impairment is the UHDRS motor assessment section, which was administered by a trained examiner. The first part of the motor assessment consisted of five TMS subscores, provided below. The sum total of all the 31 items is referred to as the Total Motor Score (TMS). The secondary efficacy variable and endpoint was change from baseline in the mPPT at Week 26 or Week 52. The TMS scale includes measurement of dystonia.
It is a research tool which has been developed to provide a uniform assessment of the clinical features and course of HD. The TMS component of UHDRS comprises 31 assessments from the 15 items of the UHDRS, with each assessment rated on a 5-point scale from 0 (normal) to 4 (maximally abnormal).
The change from baseline in UHDRS-TMS was analyzed using a Repeated Measures model (SAS® MIXED procedure with REPEATED sub-command). The model includes the following fixed effects: categorical week in study by treatment interaction, center, neuroleptic use or no use, and baseline UHDRS-TMS score. The unstructured covariance matrix for repeated observations within patients was used.

[3] = system: patients with Huntington's disease; conditions: for Δ to placebo, change from baseline in UHDRS TMS Gait and Balances: Week 52; for Δ to placebo, change from baseline in UHDRS TMS Gait and Balance: BL TFC≥7;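 for Δ to placebo, change from baseline in UHDRS TMS Finger Taps: finger tapping item rates tapping with fingers of both hands, normal being 15 taps within 5 s, the combined score adds forearm pronation and supination on each side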
From the text: • CIBIC-Plus global score as compared to baseline • Change from baseline in the PDS score • Change from baseline in UHDRS FA • CGIC as compared to baseline • Change from baseline in UHDRS TFC • Change from baseline in UHDRS IS Global/Functional Scales: • Change from baseline in HD QOL • Change from baseline in Walk-12 scale TMS Subscores: • Change from baseline in hand movement score (defined as the sum of UHDRS domains finger taps, pronate-supinate hands and luria [fist-hand-palm test]) • Change from baseline in Gait and balance score (defined as the sum of UHDRS domains gait, tandem walking and retropulsion pull test) • Change from baseline in UHDRS mMS (defined as the sum of UHDRS domains dysarthria, tongue protrusion, finger taps, pronate-supinate hands, luria, rigidity, bradykinesia, gait, tandem walking, retropulsion pull test) • Change from baseline in UHDRS Chorea • Change from baseline in UHDRS Dystonia • Responders, defined as patients with UHDRS TMS change from baseline≤0 Other Motor Assessments: • Change from baseline in Q Motor measurements including digitomotography (speeded index finger tapping), dysdiadochomotography (pronation/supination hand tapping), manumotography and choreomotography (grip force and chorea analysis) and pedomotography (speeded foot tapping) • Change from baseline in the TUG test Cognitive/Psychiatric Assessments: • Change from baseline in HD-CAB brief: SDMT, Emotion Recognition, Trail Making Test, HVLT-R, Paced Tapping at 3 Hz, OTS. • Change from baseline in PBA-s Safety Variables and Endpoints
The gait and balance score is defined as the sum of UHDRS domains gait, tandem walking and retropulsion pull test.

[4] = system: patients with Huntington's disease; remark: listed apart in the source;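 for Δ to placebo, change from baseline in UHDRS TMS Finger Taps: finger tapping item rates tapping with fingers of both hands, normal being 15 taps within 5 s, the combined score adds forearm pronation and supination on each side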
From the text: Finger Taps and Pronate-Supinate (P/S) hands is a combination of finger tapping (the ability to tap the fingers of both hands where 15 repetitions in 5 seconds is considered normal) with pronation/supination (the ability to rotate the forearm and hand such that the palm is down (pronation) and to rotate the forearm and hand such that the palm is up (supination) on both sides of the body).
The hand movement score is defined as the sum of UHDRS domains finger taps, pronate-supinate hands and luria (fist-hand-palm test).
An assessment of the ability to rotate the forearm and hand such that the palm is down (pronation) and to rotate the forearm and hand such that the palm is up (supination) on both sides of the body.

[5] = system: patients with Huntington's disease; conditions: Week 26; for Δ to placebo, change from baseline in UHDRS TMS Chorea: ALL; for Wk 26 Δ to placebo, change from baseline in UHDRS TMS Chorea: Stage 1 BL TFC 11-13;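 for Δ to placebo, change from baseline in UHDRS TMS Finger Taps: finger tapping item rates tapping with fingers of both hands, normal being 15 taps within 5 s, the combined score adds forearm pronation and supination on each side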
From the text: In the UHDRS, maximal chorea was scored from 0 (absent) to 4 (marked/prolonged) on each of the following items: face, mouth, trunk, right upper extremity, left upper extremity, right lower extremity, and left lower extremity. Maximal chorea is the sum of all scores.

[6] = 45 mg bid, score at week 26, patients who have completed 52 weeks of treatment
[7] = 45 mg bid, score at week 52, patients who have completed 52 weeks of treatment
[8] = 67.5 mg bid, score at week 26, patients who have completed 52 weeks of treatment
[9] = 67.5 mg bid, score at week 52, patients who have completed 52 weeks of treatment
[10] = 90 mg bid, score at week 26, patients who have completed 52 weeks of treatment
[11] = 90 mg bid, score at week 52, patients who have completed 52 weeks of treatment
[12] = 112.5 mg bid, score at week 26, patients who have completed 52 weeks of treatment
[13] = 112.5 mg bid, score at week 52, patients who have completed 52 weeks of treatment

CCCN1CCC(c2cccc(S(C)(=O)=O)c2)CC1 [pridopidine, 4-[3-(methylsulfonyl)phenyl]-1-propyl-piperidine]
secondary outcomes (CGI, Patient Global Assessment, VAS pain, BFMDS, EQ-5D, SF-36 etc.) [1]: improve the secondary outcomes | severity of dystonia (BFMDRS or UDRS), primary endpoint [1]: improve the severity of dystonia | UHDRS-TMS change from baseline over time ([2]; 45 mg bid, HD1 patients, after 52 weeks): improvement in TMS score | Δ to placebo, change from baseline in UHDRS TMS ([2]; 45 mg bid, Week 26, ALL): 1.42 | Δ to placebo, change from baseline in UHDRS TMS ([2]; 45 mg bid, Week 26, Stage 1 BL TFC 11-13): −4.47 | Δ to placebo, change from baseline in UHDRS TMS ([2]; 45 mg bid, Week 52, ALL): 0.59 | Wk 52 Δ to placebo, change from baseline in UHDRS TMS ([2]; 45 mg bid, Week 52, Stage 1 BL TFC 11-13): −5.32 | TMS change from baseline vs historical placebo ([2]; 45 mg bid, historical placebo in HART and MermaiHD): significant | Δ to placebo, change from baseline in UHDRS TMS ([2]; 67.5 mg bid, Week 26, ALL): 1.71 | Δ to placebo, change from baseline in UHDRS TMS ([2]; 67.5 mg bid, Week 26, Stage 1 BL TFC 11-13): −3 | Δ to placebo, change from baseline in UHDRS TMS ([2]; 67.5 mg bid, Week 52, ALL): 2.55 | Wk 52 Δ to placebo, change from baseline in UHDRS TMS ([2]; 67.5 mg bid, Week 52, Stage 1 BL TFC 11-13): −0.84 | Δ to placebo, change from baseline in UHDRS TMS ([2]; 90 mg bid, Week 26, ALL): 0.67 | UHDRS TMS score at week 26 compared to baseline ([2]; 90 mg bid, Week 26, BL TFC 11-13, read from FIG. 8b): about −8 | Δ to placebo, change from baseline in UHDRS TMS ([2]; 90 mg bid, Week 26, Stage 1 BL TFC 11-13): −6.15 | Δ to placebo, change from baseline in UHDRS TMS ([2]; 90 mg bid, Week 52, ALL): 1.78 | Wk 52 Δ to placebo, change from baseline in UHDRS TMS ([2]; 90 mg bid, Week 52, Stage 1 BL TFC 11-13): −7.1 | Total Motor Score (TMS) change from baseline, treatment effect ([2]; 90 mg bid, compared with other doses): largest treatment effect | TMS change from baseline vs historical placebo ([2]; 90 mg bid, historical placebo in HART and MermaiHD): significant | Total Motor Score (TMS) change from baseline, difference vs historical placebo ([2]; 90 mg bid, week 26, historical placebo in HART and MermaiHD): ~6.5 TMS point | Δ to placebo, change from baseline in UHDRS TMS ([2]; 112.5 mg bid, Week 26, ALL): 2.1 | Δ to placebo, change from baseline in UHDRS TMS ([2]; 112.5 mg bid, Week 26, Stage 1 BL TFC 11-13): −4.79 | Δ to placebo, change from baseline in UHDRS TMS ([2]; 112.5 mg bid, Week 52, ALL): 2.71 | Wk 52 Δ to placebo, change from baseline in UHDRS TMS ([2]; 112.5 mg bid, Week 52, Stage 1 BL TFC 11-13): −0.92 | Δ to placebo, change from baseline in UHDRS TMS Gait and Balances ([3]; 45 mg bid, Stage 1 BL TFC 11-13): −0.94 | Δ to placebo, change from baseline in UHDRS TMS Gait and Balances ([3]; 45 mg bid, all pridopidine treated patients): −0.09 | Δ to placebo, change from baseline in UHDRS TMS Gait and Balance ([3]; 45 mg bid, week 26): −0.48 | Δ to placebo, change from baseline in UHDRS TMS Gait and Balance ([3]; 45 mg bid, week 52): −0.41 | Δ to placebo, change from baseline in UHDRS TMS Gait and Balances ([3]; 67.5 mg bid, Stage 1 BL TFC 11-13): −0.53 | Δ to placebo, change from baseline in UHDRS TMS Gait and Balances ([3]; 67.5 mg bid, all pridopidine treated patients): −0.05 | Δ to placebo, change from baseline in UHDRS TMS Gait and Balance ([3]; 67.5 mg bid, week 26): −0.37 | Δ to placebo, change from baseline in UHDRS TMS Gait and Balance ([3]; 67.5 mg bid, week 52): −0.43 | Δ to placebo, change from baseline in UHDRS TMS Gait and Balances ([3]; 90 mg bid, Stage 1 BL TFC 11-13): −0.49 | Δ to placebo, change from baseline in UHDRS TMS Gait and Balances ([3]; 90 mg bid, all pridopidine treated patients): −0.01 | Δ to placebo, change from baseline in UHDRS TMS Gait and Balance ([3]; 90 mg bid, week 26): −0.62 | Δ to placebo, change from baseline in UHDRS TMS Gait and Balance ([3]; 90 mg bid, week 52): −0.28 | Δ to placebo, change from baseline in UHDRS TMS Gait and Balances ([3]; 112.5 mg bid, Stage 1 BL TFC 11-13): −0.4 | Δ to placebo, change from baseline in UHDRS TMS Gait and Balances ([3]; 112.5 mg bid, all pridopidine treated patients): 0.04 | Δ to placebo, change from baseline in UHDRS TMS Gait and Balance ([3]; 112.5 mg bid, week 26): −0.49 | Δ to placebo, change from baseline in UHDRS TMS Gait and Balance ([3]; 112.5 mg bid, week 52): −0.09 | Δ to placebo, change from baseline in UHDRS TMS Finger Taps ([4]; 45 mg bid, Week 26, ALL): −0.3 | Δ to placebo, change from baseline in UHDRS TMS Finger Taps ([4]; 45 mg bid, Week 26, BL TFC≥9, CAG Repeats <44, BL TMS 1st 3 Qs): −0.87 | Δ to placebo, change from baseline in UHDRS TMS Finger Taps ([4]; 45 mg bid, Week 26, BL TFC≥9 and CAG Repeats>44): −0.86 | Δ to placebo, change from baseline in UHDRS TMS Finger Tapping+Pronate-Supinate Hands [4, 6]: −0.79 | Δ to placebo, change from baseline in UHDRS TMS Finger Taps [4, 6]: −0.59 | Δ to placebo, change from baseline in UHDRS TMS Finger Tapping+Pronate-Supinate Hands [4, 7]: −0.37 | Δ to placebo, change from baseline in UHDRS TMS Finger Taps [4, 7]: −0.31 | Δ to placebo, change from baseline in UHDRS TMS Finger Taps ([4]; 67.5 mg bid, Week 26, ALL): −0.07 | Δ to placebo, change from baseline in UHDRS TMS Finger Taps ([4]; 67.5 mg bid, Week 26, BL TFC≥9, CAG Repeats <44, BL TMS 1st 3 Qs): −0.36 | Δ to placebo, change from baseline in UHDRS TMS Finger Taps ([4]; 67.5 mg bid, Week 26, BL TFC≥9 and CAG Repeats>44): −0.34 | Δ to placebo, change from baseline in UHDRS TMS Finger Tapping+Pronate-Supinate Hands [4, 8]: 0.02 | Δ to placebo, change from baseline in UHDRS TMS Finger Taps [4, 8]: −0.13 | Δ to placebo, change from baseline in UHDRS TMS Finger Tapping+Pronate-Supinate Hands [4, 9]: 0.68 | Δ to placebo, change from baseline in UHDRS TMS Finger Taps [4, 9]: 0.13 | Δ to placebo, change from baseline in UHDRS TMS Finger Taps ([4]; 90 mg bid, Week 26, ALL): −0.07 | Δ to placebo, change from baseline in UHDRS TMS Finger Taps ([4]; 90 mg bid, Week 26, BL TFC≥9, CAG Repeats <44, BL TMS 1st 3 Qs): −0.54 | Δ to placebo, change from baseline in UHDRS TMS Finger Taps ([4]; 90 mg bid, Week 26, BL TFC≥9 and CAG Repeats>44): −0.52 | Δ to placebo, change from baseline in UHDRS TMS Finger Tapping+Pronate-Supinate Hands [4, 10]: 0.02 | Δ to placebo, change from baseline in UHDRS TMS Finger Taps [4, 10]: −0.01 | Δ to placebo, change from baseline in UHDRS TMS Finger Tapping+Pronate-Supinate Hands [4, 11]: 0.48 | Δ to placebo, change from baseline in UHDRS TMS Finger Taps [4, 11]: 0.08 | Δ to placebo, change from baseline in UHDRS TMS Finger Taps ([4]; 112.5 mg bid, Week 26, ALL): −0.12 | Δ to placebo, change from baseline in UHDRS TMS Finger Taps ([4]; 112.5 mg bid, Week 26, BL TFC≥9, CAG Repeats <44, BL TMS 1st 3 Qs): −1.05 | Δ to placebo, change from baseline in UHDRS TMS Finger Taps ([4]; 112.5 mg bid, Week 26, BL TFC≥9 and CAG Repeats>44): −1.07 | Δ to placebo, change from baseline in UHDRS TMS Finger Tapping+Pronate-Supinate Hands [4, 12]: −0.23 | Δ to placebo, change from baseline in UHDRS TMS Finger Taps [4, 12]: −0.21 | Δ to placebo, change from baseline in UHDRS TMS Finger Tapping+Pronate-Supinate Hands [4, 13]: 0.28 | Δ to placebo, change from baseline in UHDRS TMS Finger Taps [4, 13]: 0.1 | Δ to placebo, change from baseline in UHDRS TMS Chorea ([5]; 45 mg bid): 0.92 | Wk 26 Δ to placebo, change from baseline in UHDRS TMS Chorea ([5]; 45 mg bid): −1.4 | Δ to placebo, change from baseline in UHDRS TMS Chorea ([5]; 67.5 mg bid): 0.81 | Wk 26 Δ to placebo, change from baseline in UHDRS TMS Chorea ([5]; 67.5 mg bid): −2.07 | Δ to placebo, change from baseline in UHDRS TMS Chorea ([5]; 90 mg bid): 0.36 | Wk 26 Δ to placebo, change from baseline in UHDRS TMS Chorea ([5]; 90 mg bid): −2.52 | Δ to placebo, change from baseline in UHDRS TMS Chorea ([5]; 112.5 mg bid): 1.05 | Wk 26 Δ to placebo, change from baseline in UHDRS TMS Chorea ([5]; 112.5 mg bid): −1.08
